Experiment: Inhibition of NRAS G12D mutant (unknown origin) expressed in human THP-1 cells assessed as reduction in ERK phosphorylation incubated for 2 hrs by AlphaLISA SureFire Ultra assay
Type: cell-based
Settings: THP-1, 2 h

C[C@@H]1OC2=NC(c3cc(N)cc(F)c3OC(F)(F)F)=C(F)C3C(Cl)=C(CCN(C)C)N=C(C23)N2C[C@H]3CC[C@H](N3)[C@@H]12 (stereo partly specified)
IC50: 0.803 nM

From ChEMBL document CHEMBL6103608, “Emerging RAS Inhibitors: Heterocyclic and Spirocyclic Compounds in Cancer Therapeutics” (ACS Med Chem Lett, 2025)
